Where two headings read alike, the source gives them in different places.
Columns and labels:
229E = 229E MRC5 CPE assay (cytopathic experiment); format: cell-based, coronavirus 229E (HCoV-229E)
Method: (§1) Cells were seeded into microplates at a certain density and cultured overnight in a incubator at 5% CO2, 37° C. The next day, double-diluted compound and virus were added. It was set up a cell control group (cells without treatment with a compound or virus infection), a virus control group (cells infected with virus, no compound treatment) and a culture medium control group (medium only). Cells were cultured in the incubator for 3 days (229E) or 7 days (OC43). Cytotoxicity experiments were performed under the same conditions as antiviral experiments, but without virus infection. Cell viability was tested using a cell viability assay kit Cell Titer Glo (Promega).
(§2) The antiviral activity and cytotoxicity of the compounds were expressed by the inhibition rate (%) and cell viability (%) of the compounds against virus-induced cytopathic effects at different concentrations, respectively. Nonlinear fitting analysis on the inhibition rate and cell viability of the compounds were carried out with the GraphPad Prism, and the half effective concentration (EC50), the […] effective concentration (EC90), the half cytotoxic concentration (CC50) and the 90% cytotoxic concentration of the compound […] values were calculated.

OC43 = OC43 Huh7 CPE assay (cytopathic experiment); format: cell-based, coronavirus OC43 (HCoV-OC43); conditions: for EC50: read-out: OC43 Huh7 CPE assay (μM) EC50; for EC90: read-out: OC43 Huh7 CPE assay (μM) EC90
Method: as §1, §2

[1] = Human coronavirus 229E, MRC5, 72 h, read-out: 229E MRC5 CPE assay (μM) EC50
[2] = Human coronavirus 229E, MRC5, 72 h, read-out: 229E MRC5 CPE assay (μM) EC90
[3] = Betacoronavirus 1, OC43, Huh-7, 168 h
[4] = Human coronavirus 229E, MRC5, 72 h; read-out: 229E MRC5 CPE assay (μM) EC50
[5] = Human coronavirus 229E, MRC5, 72 h; read-out: 229E MRC5 CPE assay (μM) EC90
[6] = Betacoronavirus 1, Huh-7, 168 h, Huh7 cells, OC43 virus, 7 days, Cell Titer Glo

Structure (SMILES)	EC50 (229E; [1]) [µM]	EC90 (229E; [2]) [µM]	EC50 (OC43; [3]) [µM]	EC90 (OC43; [3]) [µM]	EC50 (229E; [4]) [µM]	EC90 (229E; [5]) [µM]	EC50 (OC43; [6]) [µM]	EC90 (OC43; [6]) [µM]
CCCC(CCC)C(=O)OCO[P@@](=O)(N[C@@H](C)C(=O)OCC(CC)CC)OC[C@H]1O[C@@](C#N)(c2ccc3c(N)ncnn23)[C@H](O)[C@@H]1O [Compound 071]	< 0.1	< 0.1	< 0.1	< 0.1	–	–	–	–
CCCC(CCC)C(=O)OCO[P@](=O)(N[C@@H](C)C(=O)OC(C)C)OC[C@H]1O[C@@](C#N)(c2ccc3c(N)ncnn23)[C@H](O)[C@@H]1O [Compound 074]	< 0.1	< 0.1	< 0.1	0.1 to 0.5	–	–	–	–
CCCC(CCC)C(=O)OCO[P@@](=O)(N[C@@H](C)C(=O)OC(C)C)OC[C@H]1O[C@@](C#N)(c2ccc3c(N)ncnn23)[C@H](O)[C@@H]1O [Compound 075]	0.1 to 0.5	0.1 to 0.5	0.1 to 0.5	> 0.5	–	–	–	–
CCC(CC)COC(=O)[C@H](C)N[P@@](=O)(OCOC(=O)OC(C)C)OC[C@H]1O[C@@](C#N)(c2ccc3c(N)ncnn23)[C@H](O)[C@@H]1O [Compound 076]	< 0.1	0.1 to 0.5	0.1 to 0.5	0.1 to 0.5	–	–	–	–
CCN(CC)Cc1cc(Nc2ccnc3cc(Cl)ccc23)ccc1O[P@](=O)(N[C@@H](C)C(=O)OC(C)C)OC[C@H]1O[C@@](C#N)(c2ccc3c(N)ncnn23)[C@H](O)[C@@H]1O [Compound 086]	–	–	–	–	> 0.5	> 0.5	> 0.5	> 0.5
CCN(CC)Cc1cc(Nc2ccnc3cc(Cl)ccc23)ccc1O[P@](=O)(N[C@@H](C)C(=O)OC)OC[C@H]1O[C@@](C#N)(c2ccc3c(N)ncnn23)[C@H](O)[C@@H]1O [Compound 087]	–	–	–	–	> 0.5	> 0.5	> 0.5	> 0.5
CCOC(=O)[C@H](C)N[P@](=O)(OC[C@H]1O[C@@](C#N)(c2ccc3c(N)ncnn23)[C@H](O)[C@@H]1O)Oc1ccc(Nc2ccnc3cc(Cl)ccc23)cc1CN(CC)CC [Compound 088]	–	–	–	–	> 0.5	> 0.5	> 0.5	> 0.5
N#C[C@@]1(c2ccc3c(N)ncnn23)O[C@@H]2COP(=O)(O)O[C@H]2[C@H]1O [Compound 094]	> 0.5	> 0.5	> 0.5	> 0.5	–	–	–	–
CCCC(CCC)C(=O)OCO[P@](=O)(N[C@@H](C)C(=O)OC)OC[C@H]1O[C@@](C#N)(c2ccc3c(N)ncnn23)[C@H](O)[C@@H]1O [Compound 095]	< 0.1	0.1 to 0.5	< 0.1	0.1 to 0.5	–	–	–	–
CCCC(CCC)C(=O)OCO[P@@](=O)(N[C@@H](C)C(=O)OC)OC[C@H]1O[C@@](C#N)(c2ccc3c(N)ncnn23)[C@H](O)[C@@H]1O [Compound 096]	< 0.1	< 0.1	0.1 to 0.5	0.1 to 0.5	–	–	–	–
CCCC(CCC)C(=O)OCO[P@](=O)(N[C@@H](C)C(=O)OCC)OC[C@H]1O[C@@](C#N)(c2ccc3c(N)ncnn23)[C@H](O)[C@@H]1O [Compound 097]	< 0.1	0.1 to 0.5	0.1 to 0.5	0.1 to 0.5	–	–	–	–
CCCC(CCC)C(=O)OCO[P@@](=O)(N[C@@H](C)C(=O)OCC)OC[C@H]1O[C@@](C#N)(c2ccc3c(N)ncnn23)[C@H](O)[C@@H]1O [Compound 098]	< 0.1	< 0.1	< 0.1	0.1 to 0.5	–	–	–	–
CCC(CC)COC(=O)[C@H](C)NP(=O)(OCC(=O)OC(C)C)OC[C@H]1O[C@@](C#N)(c2ccc3c(N)ncnn23)[C@H](O)[C@@H]1O (stereo partly drawn) [Compound 103]	> 0.5	> 0.5	> 0.5	> 0.5	–	–	–	–
CCC(CC)COC(=O)[C@H](C)NP(=O)(OCOC(=O)C(C)C)OC[C@H]1O[C@@](C#N)(c2ccc3c(N)ncnn23)[C@H](O)[C@@H]1O (stereo partly drawn) [Compound 104]	> 0.5	> 0.5	> 0.5	> 0.5	–	–	–	–
CCC(CC)COC(=O)[C@H](C)NP(=O)(OC[C@H]1O[C@@](C#N)(c2ccc3c(N)ncnn23)[C@H](O)[C@@H]1O)Oc1ccc(N)cc1C(=O)O (stereo partly drawn) [Compound 107]	–	–	–	–	> 0.5	> 0.5	> 0.5	> 0.5
CCCC(CCC)C(=O)OCO[P@](=O)(NC(C)(C)C(=O)OCC(CC)CC)OC[C@H]1O[C@@](C#N)(c2ccc3c(N)ncnn23)[C@H](O)[C@@H]1O [Compound 120]	< 0.1	0.1 to 0.5	< 0.1	0.1 to 0.5	–	–	–	–
CCCC(CCC)C(=O)OCO[P@@](=O)(NC(C)(C)C(=O)OCC(CC)CC)OC[C@H]1O[C@@](C#N)(c2ccc3c(N)ncnn23)[C@H](O)[C@@H]1O [Compound 121]	0.1 to 0.5	0.1 to 0.5	0.1 to 0.5	> 0.5	–	–	–	–
CCCC(CCC)C(=O)OCO[P@](=O)(NC(C)(C)C(=O)OC(C)C)OC[C@H]1O[C@@](C#N)(c2ccc3c(N)ncnn23)[C@H](O)[C@@H]1O [Compound 122]	0.1 to 0.5	0.1 to 0.5	0.1 to 0.5	0.1 to 0.5	–	–	–	–
CCCC(CCC)C(=O)OCO[P@@](=O)(NC(C)(C)C(=O)OC(C)C)OC[C@H]1O[C@@](C#N)(c2ccc3c(N)ncnn23)[C@H](O)[C@@H]1O [Compound 123]	0.1 to 0.5	0.1 to 0.5	0.1 to 0.5	> 0.5	–	–	–	–
CCC(CC)COC(=O)[C@H](C)N[P@]1(=O)OC[C@H]2O[C@@](C#N)(c3ccc4c(N)ncnn34)[C@H](O)[C@@H]2O1 [Compound 126]	< 0.1	0.1 to 0.5	< 0.1	0.1 to 0.5	–	–	–	–
CCC(CC)COC(=O)[C@H](C)NP(=O)(OC[C@H]1O[C@@](C#N)(c2ccc3c(N)ncnn23)[C@H](O)[C@@H]1O)Oc1cc(N)ccc1C(=O)OC (stereo partly drawn) [Compound 128]	–	–	–	–	> 0.5	> 0.5	> 0.5	> 0.5
CCCC(CCC)C(=O)OCO[P@@]1(=O)OC[C@H]2O[C@@](C#N)(c3ccc4c(N)ncnn34)[C@H](O)[C@@H]2O1 [Compound 129]	< 0.1	< 0.1	< 0.1	> 0.5	–	–	–	–
CCCC(CCC)C(=O)OCO[P@]1(=O)OC[C@H]2O[C@@](C#N)(c3ccc4c(N)ncnn34)[C@H](O)[C@@H]2O1 [Compound 130]	< 0.1	0.1 to 0.5	< 0.1	0.1 to 0.5	–	–	–	–
CCCC(CCC)C(=O)OCO[P@](=O)(N[C@@H](Cc1ccccc1)C(=O)OCC)OC[C@H]1O[C@@](C#N)(c2ccc3c(N)ncnn23)[C@H](O)[C@@H]1O [Compound 137]	< 0.1	0.1 to 0.5	< 0.1	< 0.1	–	–	–	–
CCCCOC(=O)[C@H](Cc1ccccc1)N[P@@](=O)(OCOC(=O)C(CCC)CCC)OC[C@H]1O[C@@](C#N)(c2ccc3c(N)ncnn23)[C@H](O)[C@@H]1O [Compound 138]	< 0.1	0.1 to 0.5	< 0.1	< 0.1	–	–	–	–
CCCC(CCC)C(=O)OCO[P@](=O)(N[C@@H](Cc1ccccc1)C(=O)OCC(CC)CC)OC[C@H]1O[C@@](C#N)(c2ccc3c(N)ncnn23)[C@H](O)[C@@H]1O [Compound 139]	< 0.1	0.1 to 0.5	< 0.1	< 0.1	–	–	–	–
CCC(CC)COC(=O)[C@H](C)N[P@@]1(=O)OC[C@H]2O[C@@](C#N)(c3ccc4c(N)ncnn34)[C@H](O)[C@@H]2O1 [Compound 140]	> 0.5	> 0.5	> 0.5	> 0.5	–	–	–	–
